Test results taken from ChEMBL document CHEMBL3352436, “DDD-028: a potent potential non-opioid, non-cannabinoid analgesic for neuropathic and inflammatory pain” (Bioorg Med Chem Lett, 2014).
The source made the active and inactive calls.

Key:
[1] = tested on: Rattus norvegicus; test: Antinociceptive activity in spinal nerve ligation CD rat model of neuropathic pain assessed as inhibition of mechanical allodynia measured as time required for maximal effect at 39 mg/kg, po; assay type: functional
[2] = tested on: Rattus norvegicus; test: Antinociceptive activity in spinal nerve ligation CD rat model of neuropathic pain assessed as inhibition of mechanical allodynia measured as paw withdrawal threshold at 39 mg/kg, po up to 15 mins; assay type: functional, organism-based; design: dose 39 mg/kg
[3] = tested on: Mus musculus; test: Antinociceptive activity in sciatic nerve chronic constriction injury CD1 mouse model assessed as paw withdrawal threshold at 3.5 umol/kg, po measured at 30 mins (reference value: 0.26 to 0.37 g); assay type: functional
[4] = tested on: Rattus norvegicus; test: Antinociceptive activity in spinal nerve ligation CD rat model of neuropathic pain assessed as inhibition of mechanical allodynia measured as time required for maximal effect at 5 mg/kg, po; assay type: functional
[5] = biological target: Cannabinoid receptor 2 (Homo sapiens, UniProt P34972); test: Binding affinity to cannabinoid CB2 receptor (unknown origin)
Cannabinoid receptor 2, sequence (P34972 whole entry): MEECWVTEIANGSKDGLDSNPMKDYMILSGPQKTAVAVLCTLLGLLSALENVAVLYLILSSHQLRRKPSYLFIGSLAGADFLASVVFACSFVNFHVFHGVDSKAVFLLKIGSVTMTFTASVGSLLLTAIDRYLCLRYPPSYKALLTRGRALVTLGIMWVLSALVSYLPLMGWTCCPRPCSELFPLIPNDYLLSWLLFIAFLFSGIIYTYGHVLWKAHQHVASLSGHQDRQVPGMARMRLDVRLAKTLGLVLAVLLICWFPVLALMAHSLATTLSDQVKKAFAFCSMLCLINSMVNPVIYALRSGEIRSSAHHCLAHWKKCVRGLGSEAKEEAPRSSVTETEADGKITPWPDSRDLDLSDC

[6] = biological target: Somatostatin receptor type 4 (Homo sapiens, UniProt P31391); test: Binding affinity to SST4 receptor (unknown origin)
Somatostatin receptor type 4, sequence (P31391 whole entry): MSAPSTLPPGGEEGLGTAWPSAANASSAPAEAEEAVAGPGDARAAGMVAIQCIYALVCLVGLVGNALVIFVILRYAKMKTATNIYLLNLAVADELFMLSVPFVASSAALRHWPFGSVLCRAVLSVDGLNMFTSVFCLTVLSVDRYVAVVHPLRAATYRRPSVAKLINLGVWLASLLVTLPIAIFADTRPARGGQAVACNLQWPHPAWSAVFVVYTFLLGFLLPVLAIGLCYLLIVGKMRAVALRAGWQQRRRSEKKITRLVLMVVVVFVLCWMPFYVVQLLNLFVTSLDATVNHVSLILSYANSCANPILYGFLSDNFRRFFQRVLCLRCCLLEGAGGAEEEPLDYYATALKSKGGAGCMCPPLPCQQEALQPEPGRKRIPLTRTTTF

[7] = tested on: Rattus norvegicus; test: Antinociceptive activity in Complete Freund's adjuvant-induced inflammatory pain CD rat model assessed as mechanical hypersensitivity measured as weight bearing capacity at 5 mg/kg, po administered 24 hrs post challenge relative to control; assay type: functional
[8] = Half life in CD1 mouse at 5 mg/kg, po; assay type: ADME, organism-based; design: dose 5 mg/kg, route oral; settings: in vivo
[9] = tested on: Mus musculus; test: Antinociceptive activity in sciatic nerve chronic constriction injury CD1 mouse model assessed as paw withdrawal threshold at 3.5 umol/kg, po measured at 120 mins (reference value: 0.26 to 0.37 g); assay type: functional
[10] = tested on: Rattus norvegicus; test: Antinociceptive activity in spinal nerve ligation CD rat model of neuropathic pain assessed as inhibition of mechanical allodynia measured as paw withdrawal threshold at 5 mg/kg, po after 15 to 180 mins relative to pregabalin; assay type: functional
[11] = tested on: Rattus norvegicus; test: Antinociceptive activity in Complete Freund's adjuvant-induced inflammatory pain CD rat model assessed as mechanical hypersensitivity measured as weight bearing capacity at 5 mg/kg, po measured up to 15 mins relative to control; assay type: functional, organism-based; design: dose 5 mg/kg
[12] = tested on: Mus musculus; test: Antinociceptive activity in sciatic nerve chronic constriction injury CD1 mouse model assessed as paw withdrawal threshold at 1.3 umol/kg administered intrathecally measured at 180 mins (reference value: 0.21 to 0.30 g); assay type: functional
[13] = biological target: Adenosine receptor A2a (Homo sapiens, UniProt P29274); test: Binding affinity to adenosine A2A receptor (unknown origin)
Adenosine receptor A2a, sequence (P29274 whole entry): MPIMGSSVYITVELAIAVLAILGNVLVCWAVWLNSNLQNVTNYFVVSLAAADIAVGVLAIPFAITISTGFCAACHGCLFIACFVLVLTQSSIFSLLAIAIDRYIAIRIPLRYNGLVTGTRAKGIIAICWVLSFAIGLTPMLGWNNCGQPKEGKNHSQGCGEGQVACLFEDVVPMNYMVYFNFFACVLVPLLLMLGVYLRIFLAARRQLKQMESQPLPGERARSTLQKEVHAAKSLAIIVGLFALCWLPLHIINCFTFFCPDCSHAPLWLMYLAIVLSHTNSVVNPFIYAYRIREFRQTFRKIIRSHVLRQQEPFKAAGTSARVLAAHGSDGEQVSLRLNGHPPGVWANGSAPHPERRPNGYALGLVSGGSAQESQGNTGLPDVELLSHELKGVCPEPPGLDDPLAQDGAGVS

[14] = tested on: Mus musculus; test: Antinociceptive activity in sciatic nerve chronic constriction injury CD1 mouse model assessed as paw withdrawal threshold at 3.5 umol/kg, po measured at 300 mins (reference value: 0.26 to 0.37 g); assay type: functional
[15] = Binding affinity to […] AMPA receptor (unknown origin); design: species or system Homo sapiens
[16] = tested on: Mus musculus; test: Antinociceptive activity in sciatic nerve chronic constriction injury CD1 mouse model assessed as paw withdrawal threshold at 1.3 umol/kg administered intrathecally measured at 300 mins (reference value: 0.21 to 0.30 g); assay type: functional
[17] = AUC (0 to t) in CD1 mouse at 5 mg/kg, po; assay type: ADME, organism-based; design: dose 5 mg/kg, route oral; settings: plasma
[18] = tested on: Rattus norvegicus; test: Antinociceptive activity in Complete Freund's adjuvant-induced inflammatory pain CD rat model assessed as mechanical hypersensitivity measured as weight bearing capacity at 5 mg/kg, po administered before challenge relative to control; assay type: functional
[19] = tested on: Rattus norvegicus; test: Antinociceptive activity in Complete Freund's adjuvant-induced inflammatory pain CD rat model assessed as mechanical hypersensitivity measured as weight bearing capacity at 5 mg/kg, po measured after 15 to 120 mins relative to control; assay type: functional
[20] = Cmax in CD1 mouse at 5 mg/kg, po; assay type: ADME, organism-based; design: dose 5 mg/kg, route oral; settings: in vivo
[21] = tested on: Mus musculus; test: Antinociceptive activity in sciatic nerve chronic constriction injury CD1 mouse model assessed as paw withdrawal threshold at 1.3 umol/kg administered intrathecally measured at 60 mins (reference value: 0.21 to 0.30 g); assay type: functional
[22] = Binding affinity to strychnine-insensitive glycine receptor (unknown origin); design: species or system Homo sapiens
[23] = Binding affinity to sigma2 receptor (unknown origin); design: species or system Homo sapiens
[24] = biological target: Somatostatin receptor type 2 (Homo sapiens, UniProt P30874); test: Binding affinity to SST2 receptor (unknown origin)
Somatostatin receptor type 2, sequence (P30874 whole entry): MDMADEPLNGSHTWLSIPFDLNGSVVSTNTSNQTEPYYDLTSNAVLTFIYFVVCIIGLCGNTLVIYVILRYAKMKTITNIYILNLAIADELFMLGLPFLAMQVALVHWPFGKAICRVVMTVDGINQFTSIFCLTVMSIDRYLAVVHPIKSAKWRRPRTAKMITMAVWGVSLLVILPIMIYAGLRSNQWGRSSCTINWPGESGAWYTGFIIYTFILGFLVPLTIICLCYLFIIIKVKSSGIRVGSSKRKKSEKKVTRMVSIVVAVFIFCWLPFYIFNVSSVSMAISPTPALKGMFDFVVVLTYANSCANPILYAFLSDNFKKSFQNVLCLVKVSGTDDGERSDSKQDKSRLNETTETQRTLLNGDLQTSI

[25] = biological target: T1, Adenosine receptor A3 (Homo sapiens, UniProt P0DMS8); test: Binding affinity to adenosine A3 receptor (unknown origin)
T1 sequence (P0DMS8 whole entry): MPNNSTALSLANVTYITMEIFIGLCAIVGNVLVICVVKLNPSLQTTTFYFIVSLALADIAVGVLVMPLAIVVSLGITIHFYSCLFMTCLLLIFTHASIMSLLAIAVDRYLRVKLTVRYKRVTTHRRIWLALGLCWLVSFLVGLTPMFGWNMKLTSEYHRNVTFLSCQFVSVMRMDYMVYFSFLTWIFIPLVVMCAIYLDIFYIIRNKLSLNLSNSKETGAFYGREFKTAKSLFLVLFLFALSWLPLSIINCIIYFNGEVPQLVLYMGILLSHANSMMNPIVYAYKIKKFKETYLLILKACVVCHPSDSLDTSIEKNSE

[26] = tested on: Mus musculus; test: Antinociceptive activity in sciatic nerve chronic constriction injury CD1 mouse model assessed as paw withdrawal threshold at 1.3 umol/kg administered intrathecally measured at 30 mins (reference value: 0.21 to 0.30 g); assay type: functional
[27] = tested on: Rattus norvegicus; test: Toxicity in Complete Freund's adjuvant-induced inflammatory pain CD rat model assessed as sedation at 5 mg/kg, po measured at 2 hrs post dose; assay type: organism-based; design: dose 5 mg/kg, route oral; settings: in vivo
[28] = AUC (0 to infinity) in CD1 mouse at 5 mg/kg, po; assay type: ADME, organism-based; design: time infinity, dose 5 mg/kg, route oral; settings: plasma
[29] = tested on: Mus musculus; test: Antinociceptive activity in sciatic nerve chronic constriction injury CD1 mouse model assessed as paw withdrawal threshold at 1.3 umol/kg administered intrathecally measured at 120 mins (reference value: 0.21 to 0.30 g); assay type: functional
[30] = tested on: Rattus norvegicus; test: Antinociceptive activity in Complete Freund's adjuvant-induced inflammatory pain CD rat model assessed as mechanical hypersensitivity measured as weight bearing capacity at 5 mg/kg, po measured after 15 to 120 mins relative to indomethacin; assay type: functional
[31] = biological target: T2, Adenosine receptor A1 (Homo sapiens, UniProt P30542); test: Binding affinity to adenosine A1 receptor (unknown origin)
T2 sequence (P30542 whole entry): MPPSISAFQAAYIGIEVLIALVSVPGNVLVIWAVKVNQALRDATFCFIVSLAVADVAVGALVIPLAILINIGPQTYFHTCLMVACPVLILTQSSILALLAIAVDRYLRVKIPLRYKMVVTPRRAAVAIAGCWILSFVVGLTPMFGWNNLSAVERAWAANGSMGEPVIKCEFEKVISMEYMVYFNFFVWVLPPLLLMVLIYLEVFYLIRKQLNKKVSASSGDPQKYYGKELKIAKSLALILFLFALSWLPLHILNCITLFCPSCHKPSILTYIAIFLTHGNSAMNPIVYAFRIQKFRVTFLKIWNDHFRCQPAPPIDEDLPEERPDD

[32] = Binding affinity to strychnine-sensitive glycine receptor (unknown origin); design: species or system Homo sapiens
[33] = tested on: Rattus norvegicus; test: Antinociceptive activity in Complete Freund's adjuvant-induced inflammatory pain CD rat model assessed as time required for maximal effect at 5 mg/kg, po relative to control; assay type: functional
[34] = biological target: Cannabinoid receptor 1 (Homo sapiens, UniProt P21554); test: Binding affinity to cannabinoid CB1 receptor (unknown origin)
Cannabinoid receptor 1, sequence (P21554 whole entry): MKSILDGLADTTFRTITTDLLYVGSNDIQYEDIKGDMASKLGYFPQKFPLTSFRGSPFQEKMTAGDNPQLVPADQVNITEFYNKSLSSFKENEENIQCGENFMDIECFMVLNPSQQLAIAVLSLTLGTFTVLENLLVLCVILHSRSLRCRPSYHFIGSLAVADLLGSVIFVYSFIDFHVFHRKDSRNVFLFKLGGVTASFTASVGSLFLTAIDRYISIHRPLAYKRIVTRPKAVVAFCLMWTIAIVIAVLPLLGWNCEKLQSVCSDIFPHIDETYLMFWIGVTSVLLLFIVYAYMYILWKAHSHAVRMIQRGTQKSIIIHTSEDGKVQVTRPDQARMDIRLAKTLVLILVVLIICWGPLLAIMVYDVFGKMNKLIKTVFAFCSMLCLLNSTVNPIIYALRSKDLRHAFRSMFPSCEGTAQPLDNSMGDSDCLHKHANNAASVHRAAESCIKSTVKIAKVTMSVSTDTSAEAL

[35] = tested on: Mus musculus; test: Antinociceptive activity in sciatic nerve chronic constriction injury CD1 mouse model assessed as paw withdrawal threshold at 3.5 umol/kg, po measured at 180 mins (reference value: 0.26 to 0.37 g); assay type: functional
[36] = tested on: Rattus norvegicus; test: Antinociceptive activity in spinal nerve ligation CD rat model of neuropathic pain assessed as inhibition of mechanical allodynia at 39 mg/kg, po after 15 to 180 mins; assay type: functional
[37] = Elimination rate constant in CD1 mouse at 5 mg/kg, po; assay type: ADME, organism-based; design: dose 5 mg/kg, route oral; settings: in vivo
[38] = biological target: Transient receptor potential cation channel subfamily V member 1 (Homo sapiens, UniProt Q8NER1); test: Binding affinity to TRPV1 (unknown origin)
Transient receptor potential cation channel subfamily V member 1, sequence (Q8NER1 whole entry): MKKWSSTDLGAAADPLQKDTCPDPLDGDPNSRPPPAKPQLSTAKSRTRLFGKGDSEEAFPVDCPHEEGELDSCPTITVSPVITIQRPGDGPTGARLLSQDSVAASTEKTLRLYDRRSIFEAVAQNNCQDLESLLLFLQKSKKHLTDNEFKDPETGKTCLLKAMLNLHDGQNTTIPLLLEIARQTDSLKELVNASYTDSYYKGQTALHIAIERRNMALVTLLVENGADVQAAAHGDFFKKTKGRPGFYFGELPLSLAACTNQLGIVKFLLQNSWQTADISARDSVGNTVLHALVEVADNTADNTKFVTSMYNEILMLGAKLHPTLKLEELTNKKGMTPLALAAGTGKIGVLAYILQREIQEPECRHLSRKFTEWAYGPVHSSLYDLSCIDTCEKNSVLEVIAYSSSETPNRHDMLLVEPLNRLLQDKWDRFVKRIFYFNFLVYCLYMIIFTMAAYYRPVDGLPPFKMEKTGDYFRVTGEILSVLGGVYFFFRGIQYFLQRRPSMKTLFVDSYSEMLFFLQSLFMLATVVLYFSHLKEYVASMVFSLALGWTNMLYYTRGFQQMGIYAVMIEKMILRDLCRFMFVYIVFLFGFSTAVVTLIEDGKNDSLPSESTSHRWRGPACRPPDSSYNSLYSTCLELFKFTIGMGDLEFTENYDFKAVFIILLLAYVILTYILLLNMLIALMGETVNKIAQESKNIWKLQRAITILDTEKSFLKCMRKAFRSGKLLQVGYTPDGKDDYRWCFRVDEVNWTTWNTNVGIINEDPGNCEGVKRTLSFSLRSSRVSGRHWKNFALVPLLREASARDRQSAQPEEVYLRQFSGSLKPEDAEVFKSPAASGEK

[39] = Tmax in CD1 mouse at 5 mg/kg, po; assay type: ADME, organism-based; design: dose 5 mg/kg, route oral; settings: in vivo
[40] = tested on: Mus musculus; test: Antinociceptive activity in sciatic nerve chronic constriction injury CD1 mouse model assessed as paw withdrawal threshold at 3.5 umol/kg, po measured at 60 mins (reference value: 0.26 to 0.37 g); assay type: functional
[41] = tested on: Rattus norvegicus; test: Antinociceptive activity in Complete Freund's adjuvant-induced inflammatory pain CD rat model assessed as time required for maximal effect at 30 mg/kg, po relative to control; assay type: functional
[42] = Tmax in CD rat at 27 mg/kg, iv; assay type: ADME, organism-based; design: dose 27 mg/kg, route intravenous; settings: in vivo
[43] = AUC (0 to infinity) in CD rat at 27 mg/kg, iv; assay type: ADME, organism-based; design: time infinity, dose 27 mg/kg, route intravenous; settings: plasma
[44] = Half life in CD rat at 27 mg/kg, iv; assay type: ADME, organism-based; design: dose 27 mg/kg, route intravenous; settings: in vivo
[45] = tested on: Rattus norvegicus; test: Toxicity in Complete Freund's adjuvant-induced inflammatory pain CD rat model assessed as sedation at 30 mg/kg, po measured at 2 hrs post dose; assay type: organism-based; design: dose 30 mg/kg, route oral; settings: in vivo
[46] = Cmax in CD rat at 27 mg/kg, iv; assay type: ADME, organism-based; design: dose 27 mg/kg, route intravenous; settings: in vivo
[47] = tested on: Rattus norvegicus; test: Antinociceptive activity in Complete Freund's adjuvant-induced inflammatory pain CD rat model assessed as mechanical hypersensitivity measured as weight bearing capacity at 30 mg/kg, po measured after 15 to 120 mins relative to control; assay type: functional, organism-based; design: dose 30 mg/kg
[48] = Elimination rate constant in CD rat at 27 mg/kg, iv; assay type: ADME, organism-based; design: dose 27 mg/kg, route intravenous; settings: in vivo
[49] = tested on: Rattus norvegicus; test: Antinociceptive activity in Complete Freund's adjuvant-induced inflammatory pain CD rat model assessed as mechanical hypersensitivity measured as weight bearing capacity at 30 mg/kg, po measured up to 15 mins relative to control; assay type: functional, organism-based; design: dose 30 mg/kg
[50] = AUC (0 to t) in CD rat at 27 mg/kg, iv; assay type: ADME, organism-based; design: dose 27 mg/kg, route intravenous; settings: plasma

## CC(C)C[C@H](CN)CC(=O)O [PREGABALIN]
[1]
  Time: 120 min
[2]
  inhibition: Active

## CN1CCc2c(c3cccc4c3n2CCc2ccccc2-4)C1
[3]
  Activity: 0.75 g
[4]
  Time: 30 min
[5]
  Ki: > 10 µM
[6]
  Ki: > 10 µM
[7]
  Activity: 35.2%
[8]
  half-life: 1.86 h
[9]
  Activity: 0.57 g
[10]
  fold change (FC): 7
[11]
  Activity: Active
[12]
  Activity: 0.41 g
[13]
  Ki: > 10 µM
[14]
  Activity: 0.21 g
[15]
  Ki: > 10 µM
[16]
  Activity: 0.21 g
[17]
  AUC(0-t): 211 ng·h/mL
[18]
  Activity: 50.8%
[19]
  Activity: 90%
[20]
  Cmax: 126 ng/mL
[21]
  Activity: 0.88 g
[22]
  Ki: > 10 µM
[23]
  Ki: 0.312 µM
[24]
  Ki: > 10 µM
[25]
  Ki: > 10 µM
[26]
  Activity: 0.86 g
[27]
  Activity: Non-toxic
[28]
  AUC(0-inf): 216 ng·h/mL
[29]
  Activity: 0.67 g
[30]
  fold change (FC): 5
[31]
  Ki: > 10 µM
[32]
  Ki: > 10 µM
[33]
  Time: 60 min
[34]
  Ki: > 10 µM
[35]
  Activity: 0.4 g
[36]
  inhibition in vivo at 39 mg/kg: 50%
[37]
  k el: 0.000103 s⁻¹
[38]
  Ki: Not Active
[39]
  Tmax: 0.25 h
[40]
  Activity: 1.09 g

## COc1ccc2c(c1)c(CC(=O)O)c(C)n2C(=O)c1ccc(Cl)cc1 [INDOMETHACIN]
[41]
  Time: 60 min
[42]
  Tmax: 0.75 h
[43]
  AUC(0-inf): 97100 ng·h/mL
[44]
  half-life: 5.99 h
[45]
  Activity: Toxic
[46]
  Cmax: 10400 ng/mL
[47]
  Activity: Active
[48]
  k el: 3.33e-05 s⁻¹
[49]
  Activity: Active
[50]
  AUC(0-t): 93800 ng·h/mL
